Reference: article PMC6100415, “Hepatic Metabolism of Sakuranetin and Its Modulating Effects on Cytochrome P450s and UDP-Glucuronosyltransferases” (Molecules : A Journal of Synthetic Chemistry and Natural …, 2018)
Where two headings read alike, the source gives them in different places. Values belong to the compound of their own block, whether it stands above or below them.

How the values were obtained:
[1] = NADPH-dependent phase I metabolic stability in rat liver microsomes; format: in vitro ADME
Procedure: (§1) Metabolic stability was measured by monitoring the amount of parent compound that remained in an incubation mixture at designated incubation time points. For the phase I metabolism study, SKN (100 μM) was incubated with liver microsomes (1 mg/mL, rat, mouse, and dog; and 0.5 mg/mL, human), and an NADPH-generation cocktail consisting of nicotinamide adenine dinucleotide phosphate (NADP^+, 1 mM), glucose-6-phosphate (5 mM), glucose-6-phosphate dehydrogenase (1 unit/mL), and MgCl2 (10 mM) in potassium phosphate buffer (0.1 M, pH 7.4) in a total volume of 1 mL. To study phase II glucuronide conjugative metabolism, uridine 5′-diphosphoglucuronic acid (UDPGA) (2 mM) was added as a cofactor. The mixture was incubated in a shaking water bath, and the enzyme reaction was initiated by the addition of NADP^+, UDPGA, or both. Aliquots (100 μL) were removed at 0, 5, 15, 30, 45, and 60 min, and the reaction was terminated by adding two volumes of ice-cold methanol. […] The half-life of SKN was obtained by plotting the remaining amount of SKN against time using Prism 3.0 software (GraphPad, La Jolla, CA, USA). Hepatic intrinsic clearance (CLint, hepatic) was calculated using the following formula [20]:CLint, hepatic = (0.693/t1/2) × (g liver weight/kg body weight) × (mL incubation/mg of microsomal protein) × (mg microsomal protein concentration/g of liver)
(§2) The DAD was set at 280 nm.

[2] = UDPGA-dependent metabolic stability in human liver microsomes; format: in vitro ADME; settings: for half-life at 100 µM / CLint scaled at 100 µM: human, pH 7.4, human liver microsomes; for CLint scaled at 100 µM: read-out: CLint, hepatic
Procedure: as §1, §2

[3] = UDPGA-dependent metabolic stability in mouse liver microsomes; format: in vitro ADME; settings: for half-life at 100 µM / CLint scaled at 100 µM: mouse, pH 7.4, mouse liver microsomes; for CLint scaled at 100 µM: read-out: CLint, hepatic
Procedure: as §1, §2

[4] = UDPGA-dependent metabolic stability in rat liver microsomes; format: in vitro ADME; settings: for CLint scaled at 100 µM: read-out: CLint, hepatic; for half-life at 100 µM: rat, pH 7.4, rat liver microsomes
Procedure: as §1, §2

[5] = target: T1, CYP1A2 (Homo sapiens, UniProt P05177); experiment: CYP inhibition in human liver microsomes, phenacetin O-deethylation (PCOD); format: in vitro ADME; settings: pH 7.4, probe phenacetin (O-deethylation, PCOD)
T1 sequence (P05177 1-516): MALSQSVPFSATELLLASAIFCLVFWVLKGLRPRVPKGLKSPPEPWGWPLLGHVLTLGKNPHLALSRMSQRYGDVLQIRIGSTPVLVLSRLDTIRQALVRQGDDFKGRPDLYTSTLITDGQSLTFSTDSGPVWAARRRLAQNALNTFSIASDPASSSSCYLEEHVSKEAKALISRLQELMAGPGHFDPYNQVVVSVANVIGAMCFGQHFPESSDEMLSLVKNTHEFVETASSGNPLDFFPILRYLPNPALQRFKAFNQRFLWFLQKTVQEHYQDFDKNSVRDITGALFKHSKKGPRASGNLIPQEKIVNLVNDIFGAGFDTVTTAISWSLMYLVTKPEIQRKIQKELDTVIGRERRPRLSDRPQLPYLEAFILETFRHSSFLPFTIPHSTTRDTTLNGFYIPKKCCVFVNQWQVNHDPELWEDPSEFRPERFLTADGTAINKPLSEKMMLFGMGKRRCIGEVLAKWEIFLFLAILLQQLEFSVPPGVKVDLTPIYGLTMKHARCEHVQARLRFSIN
Excerpt: as §2

[6] = target: T2, estrogen receptor (ER) (Homo sapiens, UniProt P03372); experiment: Estrogen receptor agonist-like activity in ER-positive human breast cancer cells; format: cell-based; settings: preliminary data, not shown
T2 construct: endogenous in cells
T2 sequence (P03372 1-595): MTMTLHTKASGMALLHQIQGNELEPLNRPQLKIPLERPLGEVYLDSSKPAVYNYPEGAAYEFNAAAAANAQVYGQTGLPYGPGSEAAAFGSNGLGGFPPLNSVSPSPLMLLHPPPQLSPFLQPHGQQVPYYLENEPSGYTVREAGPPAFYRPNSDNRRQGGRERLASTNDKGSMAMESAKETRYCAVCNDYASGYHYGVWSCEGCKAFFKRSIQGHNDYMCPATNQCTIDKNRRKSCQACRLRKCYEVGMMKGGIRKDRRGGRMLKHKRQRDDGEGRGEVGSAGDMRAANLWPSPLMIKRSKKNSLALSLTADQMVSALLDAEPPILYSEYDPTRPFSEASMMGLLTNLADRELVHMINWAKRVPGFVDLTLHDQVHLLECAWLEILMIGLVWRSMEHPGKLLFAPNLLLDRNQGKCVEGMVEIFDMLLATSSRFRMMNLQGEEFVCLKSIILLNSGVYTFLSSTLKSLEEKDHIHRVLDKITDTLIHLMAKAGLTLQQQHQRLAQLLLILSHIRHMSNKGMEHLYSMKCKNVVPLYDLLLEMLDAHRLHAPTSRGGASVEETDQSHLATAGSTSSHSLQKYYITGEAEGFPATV

[7] = test system: CYP isozymes (all isozyme-specific reactions); experiment: CYP inhibition in human liver microsomes, all isozyme-specific reactions; format: in vitro ADME; settings: pH 7.4, SKN 10 μM, read-out: inhibitory effect on the formation of any CYP isozyme-specific metabolites
Excerpt: as §2

[8] = target: CYP2C9 (Homo sapiens, UniProt P11712); experiment: CYP inhibition in human liver microsomes, tolbutamide 6-hydroxylation (TOLHY); settings: CYP2C9, TOLHY, SKN 10 μM
CYP2C9, sequence (P11712 whole entry): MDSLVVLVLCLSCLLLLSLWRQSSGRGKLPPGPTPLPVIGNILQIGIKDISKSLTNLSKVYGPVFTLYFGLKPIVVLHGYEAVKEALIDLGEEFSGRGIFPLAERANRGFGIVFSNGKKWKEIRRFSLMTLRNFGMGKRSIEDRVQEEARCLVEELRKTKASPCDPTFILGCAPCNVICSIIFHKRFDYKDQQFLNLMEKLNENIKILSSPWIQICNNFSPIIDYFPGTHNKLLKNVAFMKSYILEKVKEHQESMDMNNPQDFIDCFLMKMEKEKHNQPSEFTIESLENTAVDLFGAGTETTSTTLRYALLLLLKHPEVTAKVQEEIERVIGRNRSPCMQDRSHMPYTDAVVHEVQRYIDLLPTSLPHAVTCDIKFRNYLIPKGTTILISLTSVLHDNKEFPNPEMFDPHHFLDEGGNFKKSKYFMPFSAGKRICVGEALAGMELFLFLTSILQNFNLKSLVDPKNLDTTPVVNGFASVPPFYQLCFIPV
Procedure: The formation of a metabolite from a CYP isozyme-specific phenotyping reaction (Table 4) was monitored. Each substrate (200 μM), along with SKN (10 μM), was incubated with human liver microsomes (0.5 mg/mL) and an NADPH-generating system in 0.1 M potassium phosphate buffer (pH 7.4) at 37 °C for 60 min in a total volume of 200 μL in a shaking water bath. The metabolic reaction was initiated by adding NADP^+ (1 mM) and stopped by adding 10 μL of trichloroacetic acid. In some experiments, the microsomes were pre-incubated with SKN for 15 min prior to the addition of the cofactor, in order to determine the time-dependent inhibitory effect. […] In contrast, co-incubation refers to experiments in which microsomes and cofactors were incubated in the presence of SKN. After centrifugation of incubation samples at 12,000× g for 15 min at 4 °C, the supernatant (20 μL) was injected into an HPLC-DAD system to analyze the metabolites formation (Supplementary Materials).
The DAD was set at 248 nm for phenacetin O-deethylation (PCOD), 298 nm for bupropion hydroxylation (BPHY), 276 nm for diclofenac 4′-hydroxylation (DCHY), 230 nm for tolbutamide 6-hydroxylation (TOLHY), 280 nm for dextromethorphan O-demethylation (DEXOD), and 250 nm for testosterone 6β-hydroxylation (TSTHY) and testosterone β-D-glucuronidation (TSTG).

half-life at 100 µM ([1]; pH 7.4, rat liver microsomes): 10.1 min | CLint scaled at 100 µM ([1]; pH 7.4, rat liver microsomes, read-out: CLint, hepatic): 124 mL/min/kg | Amount Remaining at 30 min (%) ([1]; rat liver microsomes 1 mg/mL, SKN 100 μM): 29.0% | Amount Remaining at 30 min (%) ([2]; NADPH +): 54.9% | Amount Remaining at 30 min (%) ([2]; NADPH −): 71.3% | half-life at 100 µM ([2]; NADPH +): 25 min | CLint scaled at 100 µM ([2]; NADPH +): 49.9 mL/min/kg | half-life at 100 µM ([2]; NADPH −): > 30 min | CLint scaled at 100 µM ([2]; NADPH −): < 41.6 mL/min/kg | Amount Remaining at 30 min (%) ([3]; NADPH +): 0.0% | t1/2 ([3]; NADPH +): 0.91 min | Amount Remaining at 30 min (%) ([3]; NADPH −): 1.8% | half-life at 100 µM ([3]; NADPH +): 0.9 min | CLint scaled at 100 µM ([3]; NADPH +): 3280 mL/min/kg | half-life at 100 µM ([3]; NADPH −): 3.8 min | CLint scaled at 100 µM ([3]; NADPH −): 802 mL/min/kg | Amount Remaining at 30 min (%) ([4]; NADPH +): 0.0% | Amount Remaining at 30 min (%) ([4]; NADPH −): 17.1% | CLint scaled at 100 µM ([4]; pH 7.4, NADPH +): 557 mL/min/kg | CLint scaled at 100 µM ([4]; pH 7.4, NADPH −): 287 mL/min/kg | half-life at 100 µM ([4]; NADPH +): 2.2 min | half-life at 100 µM ([4]; NADPH −): 4.4 min | inhibition at 60 min, 10 µM ([5]; liver microsomes, 200 μM, SKN 10 μM, 15 min pre-incubation, read-out: % Inhibition in Pre-Incubation): 1.5 ± 2.1% | inhibition at 60 min, 10 µM ([5]; liver microsomes, 200 μM, SKN 10 μM, human liver microsomes, read-out: % Inhibition in Co-Incubation): 0.4 ± 0.5% | estrogen receptor (ER) agonist-like activity [6]: agonist-like activity | inhibition at 60 min, 10 µM [7]: ≤ 20% | % Inhibition in Pre-Incubation ([8]; 15 min pre-incubation): 10.1 ± 1.2% | % Inhibition in Co-Incubation ([8]; human liver microsomes): 2.0 ± 0.6%
Structure (SMILES): COc1cc(O)c2c(c1)OC(c1ccc(O)cc1)CC2=O (racemic) [SKN, (+/−) 7-O-methylnaringenin]

inhibition at 60 min, 10 µM ([5]; human liver microsomes, 200 µM, inhibitor 10 M [sic], human liver microsomes 0.5 mg/mL, read-out: Inhibition (%)): 15.9 ± 1.8%
Structure (SMILES): O=C1C[C@@H](c2ccc(O)c(O)c2)Oc2cc(O)cc(O)c21 [Eriodictyol, 3′-hydroxynaringenin]
